Molecular target: T1, recombinant human mPGES-1 (Homo sapiens, UniProt O14684)
T1 construct: made in house; host or cells: Rosetta E. coli (microsomal/membrane fraction)
T1 sequence (O14684 1-152): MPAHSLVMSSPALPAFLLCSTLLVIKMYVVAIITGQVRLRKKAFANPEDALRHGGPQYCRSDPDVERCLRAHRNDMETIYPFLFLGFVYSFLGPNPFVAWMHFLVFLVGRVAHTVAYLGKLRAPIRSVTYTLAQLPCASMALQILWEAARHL
Experiment: mPGES-1 inhibition test (microsomes, HTRF detection of PGE2)
Format: biochemical
Procedure: Microsomes from Rosetta E. coli bacteria expressing recombinant human mPGES-1 is dissolved in 0.1 M KPi pH 7.4 buffer containing 2.5 mM GSH. 50 μl of the enzyme is subsequently dispensed in a 384-well plate. 0.5 μl of the inhibitor dissolved in DMSO at is thereafter added to each well and incubated for 25 minutes at room temperature.
Subsequently, 2 μl of PGH2 dissolved in an appropriate solvent is added to each well and after one minute the acidified stop solution containing FeCl2 is added. 4 μl of the total volume is transferred to a separate plate and diluted 750-fold in two separate steps before HTRF detection of PGE2.
The HTRf detection is performed by the use of a commercially available kit from CisBio essentially according to the manufacturer's protocol. Briefly, 10 μl of the diluted sample is transferred to a white 384-well plate. 5 μl of d2 and 5 μl Eu3+-Cryptate labeled anti-PGE2 is added to each well containing samples by the use of a Multidrop. The plate is covered with a plastic self-adhesive film, centrifuged at 1200 rpm for 1 minute and subsequently stored at +4° C. over night.
After over night incubation the fluorescence is measured by the use of an appropriate microplate reader. The fluorescence of europium cryptate, and d2 are measured using the following excitation and emission wavelength, europium cryptate: λmax^ex=307 nm, λmax^em=620 nm and d2: λmax^ex=620 nm, λmax^em=665 nm), respectively. The extent of the specific FRET is measured as a ratio of the emission intensity at 665 nm vs. that at 620 nm. A standard curve using synthetic PGE2 is used to quantify the amount of PGE2 in unknown samples.

inhibition at 10 µM: 100%
SMILES: Cn1c(Nc2c(F)cccc2Cl)nc2cc(C(=O)NC3CCC(C)(C)CC3)ncc21 [Example 389, 2-(2-Chloro-6-fluorophenylamino)-N-(4,4-dimethylcyclohexyl)-3-methyl-3H-imidazo[4,5-c]-pyridine-6-carboxamide]
